Laboratory results published in patent US20230391727A1, “ANALOGUES OF PENTAMIDINE AND METHODS FOR TREATING INFECTIONS” (Auransa Inc., priority 2020, published 2023).
In brackets after ≈: the same amount, converted by molar mass.

Experiments:
[1] = tested on: NCI H69 cells; assay: CellTiter-Glo cell viability assay (cytotoxicity), 8 days; format: cell-based; conditions: Homo sapiens, 192 h, full growth media
Procedure: The experiment tested pentamidine, Compounds 1-6 in full growth media for 8 days. NCI H69 cells were initially treated with the test compounds on Day 0, and the cells were then replenished with fresh compound dilutions on Day 3. Pentamidine and Compound 1 were tested at 9 concentration points: 100 μM, 33.33 μM, 11.11 μM, 3.70 μM, 1.23 μM, […], 0.05 μM, and 0.02 μM (final DMSO concentration=0.5%). The raw data values from the CellTiter-Glo™ cell viability assay expressed in relative luminescence units were normalized to the vehicle for each individual plate, and any reduction in luminescence indicated a decrease in viability (%). The data was analyzed in GraphPad PRISM using a non-linear sigmoidal plot with variable slope (asymmetric four-point […]), and an IC50 value for each compound was generated based on the normalized dose-response curves and shown in Table 1.

[2] = tested on: A. baumannii ATCC 17978; assay: Checkerboard assay with novobiocin (FIGS. 2, 3, 5, 6); format: cell-based, Acinetobacter baumannii; conditions: for MIC: Acinetobacter baumannii, ATCC17978, substance alone
From the text: Novobiocin is an anti-staphylococcal drug, but with limited use. The oral form of novobiocin drug has since been withdrawn from the market due to lack of efficacy. This antibiotic is often used to treat Staphylococcus aureus infection, particularly methicillin resistant S. aureus “MRSA”.

[3] = tested on: S. aureus ATCC 27660; assay: MIC assay against gram positive S. aureus; format: cell-based; conditions: Staphylococcus aureus, ATCC27660
Procedure: (§1) Then the compound stocks were serially 2-fold diluted in a v-bottom 96-well plate to make 100-fold working solutions. One day before the test, −80° C. glycerol stock of S. aureus strains were streaked on cation-adjusted Mueller-Hinton agar (CAMHA) plates. On the day of test, fresh bacterial colonies were suspended into sterile saline to an OD600 nm of ˜0.1 (equivalent to 0.5 McFarland). The bacterial suspension was firstly 20-fold followed by 50-fold diluted in cation-adjusted Mueller-Hinton broth (CAMHB) plates to 1×10^6 CFU/PO. 198 ul of the inoculum was added into the round-bottom 96-well plates prefilled with 2 ul of 100-fold compound working solutions. After incubating at 35 +/−2° C. in ambient atmosphere for 18-24 h, MIC was recorded as the lowest concentration under which no visible bacterial growth was observed.

[4] = tested on: S. aureus ATCC 43300; assay: MIC assay against gram positive S. aureus; format: cell-based; conditions: Staphylococcus aureus, ATCC43300
Procedure: as §1

[5] = tested on: Stenotrophomonas maltophilia (ATCC 13637); assay: Checkerboard/MIC assay with rifampicin; format: cell-based; conditions: ATCC13637, substance alone
From the text: (§2) The 17 test strains/isolates were: (1) Serratia marcescens (ATCC 13880); (2) Salmonella typhimurium (ATCC 13311); (3) Salmonella choleraesuis (ATCC 10708); (4) Acinetobacter baumannii (ATCC BAA-1605); (5) A. baumannii (ATCC 17978); (6) A. baumannii (FDA-CDC AR-BANK#0088); (7) Citrobacter freundii (ATCC 8090); (8) Pseudomonas aeruginosa (BCCM 27647); (9) P. aeruginosa (BCCM 27648); (10) Escherichia coli (ATCC 25922); (11) E. coli (ATCC 10536); (12) Stenotrophomonas maltophilia (ATCC 13637); (13) Enterobacter cloacae (ATCC BAA-1143); (14) E. cloacae (ATCC 13047); (15) E. aerogenes (ATCC 13048); (16) Klebsiella pneumoniae (NCTC 13438); and (17) Klebsiella pneumoniae (FDA-CDC AR-BANK#0160). These bacterial strains were obtained from the American Type Culture Collection (ATCC, Rockville, MD, USA); Belgian Coordinated Collections of Microorganisms; The Culture Collections of Public Health England, UK; and FDA-CDC anticimrobial Resistance Isolate Bank, USA, and cryopreserved as single-use frozen working stock cultures which were stored at −80° C.
(§3) The 17 test strains were grown on nutrient agar or tryptic soy agar (TSA) medium as below. Colonies were suspended in phosphate buffered saline (PBS) pH 7.4. The absorbance of the bacterial suspension was measured with a spectrophotometer at OD620nm, and then the suspension was adjusted to 1-2×10^8 CFU/mL in PBS. The adjusted suspension was further diluted 1:500 in cation-adjusted Mueller-Hinton Broth. Each well contained approximately 5×10^5 CFU/mL. […] The testing inoculum was prepared within minutes before adding to wells of the test plate.
(§4) Compound 3 was tested in 8 points by two-fold serial titrations from 100 to 0.78 μg/mL. […] Assay plates were incubated and MIC endpoints were read as complete inhibition of visual growth. The checkerboard combination analysis was performed following the MIC testing protocol to identify potential synergistic, indifferent or antagonistic interactions. The analysis also included each test substance alone at the same concentration ranges.
(§5) FIC (Fraction Inhibitory Concentration) and FIC Index (FICI) values for each test condition and the average of FICI values of all pairwise combinations were calculated to determine if synergy or antagonism existed between the two substances. The FIC index was determined by calculating the sum of the ratios of MICs (minimum inhibitory concentrations) for both substances. […] Synergy is defined as the FICI (Σ)≤0.5; additivity or indifference are defined as the FICI (Σ)>0.5 to ≤4; antagonism is defined as the FICI (Σ)>4. The two fold of highest test article concentration was used for FIC value calculations in the circumstances where MIC values were greater than the highest test article concentration.

[6] = tested on: A. baumannii (ATCC 17978); assay: Checkerboard/MIC assay with rifampicin; format: cell-based; conditions: ATCC17978; substance alone; Acinetobacter baumannii ATCC 17978
From the text: as §2, §3, §4, §5

[7] = tested on: Klebsiella pneumoniae (FDA-CDC AR-BANK#0160); assay: Checkerboard/MIC assay with rifampicin; format: cell-based; conditions: substance alone; Klebsiella pneumoniae AR-BANK#0160
From the text: as §2, §3, §4, §5

[8] = tested on: A. baumannii (FDA-CDC AR-BANK#0088); assay: Checkerboard/MIC assay with rifampicin; format: cell-based; conditions: substance alone; Acinetobacter baumannii AR-BANK 0088
From the text: as §2, §3, §4, §5

[9] = tested on: Klebsiella pneumoniae (NCTC 13438); assay: Checkerboard/MIC assay with rifampicin; format: cell-based; conditions: NCTC13438, substance alone
From the text: as §2, §3, §4, §5

[10] = tested on: E. aerogenes (ATCC 13048); assay: Checkerboard/MIC assay with rifampicin; format: cell-based; conditions: Klebsiella aerogenes, ATCC13048; substance alone; Enterobacter aerogenes ATCC-13048
From the text: as §2, §3, §4, §5

[11] = tested on: Salmonella typhimurium (ATCC 13311); assay: Checkerboard/MIC assay with rifampicin; format: cell-based; conditions: Salmonella enterica; substance alone; Salmonella typhimurium ATCC13311
From the text: as §2, §3, §4, §5

[12] = tested on: Escherichia coli (ATCC 25922); assay: Checkerboard/MIC assay with rifampicin; format: cell-based; conditions: ATCC25922, substance alone
From the text: as §2, §3, §4, §5

[13] = tested on: Pseudomonas aeruginosa (BCCM 27647); assay: Checkerboard/MIC assay with rifampicin; format: cell-based; conditions: substance alone; Pseudomonas aeruginosa BCCM27647
From the text: as §2, §3, §4, §5

[14] = tested on: Acinetobacter baumannii (ATCC BAA-1605); assay: Checkerboard/MIC assay with rifampicin; format: cell-based; conditions: substance alone; Acinetobacter baumannii BAA-1605
From the text: as §2, §3, §4, §5

[15] = tested on: Salmonella choleraesuis (ATCC 10708); assay: Checkerboard/MIC assay with rifampicin; format: cell-based; conditions: Salmonella enterica
From the text: as §2, §3, §4, §5

[16] = tested on: Serratia marcescens (ATCC 13880); assay: Checkerboard/MIC assay with rifampicin; format: cell-based; conditions: ATCC13880, substance alone
From the text: as §2, §3, §4, §5

[17] = tested on: P. aeruginosa (BCCM 27648); assay: Checkerboard/MIC assay with rifampicin; format: cell-based; conditions: substance alone; Pseudomonas aeruginosa BCCM27648
From the text: as §2, §3, §4, §5

[18] = tested on: E. cloacae (ATCC 13047); assay: Checkerboard/MIC assay with rifampicin; format: cell-based; conditions: ATCC13047; substance alone; Enterobacter cloacae ATCC-13047
From the text: as §2, §3, §4, §5

[19] = tested on: Enterobacter cloacae (ATCC BAA-1143); assay: Checkerboard/MIC assay with rifampicin; format: cell-based; conditions: substance alone; Enterobacter cloacae BAA-1143
From the text: as §2, §3, §4, §5

[20] = tested on: Citrobacter freundii (ATCC 8090); assay: Checkerboard/MIC assay with rifampicin; format: cell-based; conditions: ATCC8090, substance alone
From the text: as §2, §3, §4, §5

[21] = tested on: E. coli (ATCC 10536); assay: Checkerboard/MIC assay with rifampicin; format: cell-based; conditions: ATCC10536; substance alone; Escherichia coli ATCC 10536
From the text: as §2, §3, §4, §5

Q: `N=C(N)c1cccc(CCCCCCCc2cccc(C(=N)N)c2)c1` [Compound 1, 3,3′-(heptane-1,7-diyl)dibenzimidamide] was tested. Which IC50 [1] did it give?
A: 0.31 µM

Q: And the “synergistic effect with novobiocin” value [2]?
A: clear synergistic effects

Q: And the “synergy with novobiocin as compared to pentamidine with novobiocin” value [2]?
A: superior synergy

Q: And the MIC [2]?
A: 149 µM

Q: `N=C(N)c1ccc(CC[C@@H]2CCC[C@@H](CCc3ccc(C(=N)N)cc3)C2)cc1` [Compound 4, 4,4′-(2,2′-((1R,3R)-cyclohexane-1,3-diyl)bis(ethane-2,1-diyl))dibenzimidamide] was tested. Which IC50 [1] did it give?
A: 0.75 µM

Q: What does the source list for `N=C(N)c1ccc(CC[C@@H]2CCC[C@H](CCc3ccc(C4CCNC4)cc3)C2)cc1` (stereo partly drawn) [Compound 5, 4-(2-((1S,3R)-3-(4-(pyrrolidin-3-yl)phenethyl)cyclohexyl)ethyl)benzimidamide]?
A: MIC [3]: 8 µg/mL (≈ 19.8 µM); MIC [4]: 8 µg/mL (≈ 19.8 µM); IC50 [1]: 1.46 µM

Q: For `N=C(N)c1cccc(CC[C@H]2CCC[C@@H](CCc3cccc(C(=N)N)c3)C2)c1` [Compound 6, 3,3′-(((1R,3S)-cyclohexane-1,3-diyl)bis(ethane-2,1-diyl))dibenzimidamide], which IC50 [1] is on record?
A: 0.33 µM

Q: For `Nc1nccc2ccc(CCCCCCCc3ccc4ccnc(N)c4c3)cc12` [Compound 7, 7,7′-(heptane-1,7-diyl)bis(isoquinolin-1-amine)], which IC50 [1] is on record?
A: 1.15 µM

Q: And the “synergistic effect with novobiocin” value [2]?
A: no synergistic effect

Q: What about the MIC [2] of the same compound?
A: 8.13 µM

Q: For `N=C(N)c1ccc(CCCCCCCc2ccc(C3CCNC3)cc2)cc1` (stereo not drawn) [Compound 8, 4-(7-(4-(pyrrolidine-3-yl)phenyl)heptyl)benzimidamide], which IC50 [1] is on record?
A: 1.92 µM

Q: What about the “synergy with novobiocin as compared to pentamidine with novobiocin” value [2] of the same compound?
A: increased synergy

Q: And the MIC [2]?
A: > 34.4 µM

Q: Which MIC [3] does the source give for `N=C(N)c1ccc(OCCCCCOc2ccc(C(=N)N)cc2)cc1` [Pentamidine, 1,5-bis(4-amidinophenoxy)pentane] here?
A: 16 µg/mL (≈ 47 µM)

Q: What about the MIC [4] of the same compound?
A: 64 µg/mL (≈ 188 µM)

Q: `CO[C@H]1/C=C/O[C@@]2(C)Oc3c(C)c(O)c4c(O)c(c(/C=N/N5CCN(C)CC5)c(O)c4c3C2=O)NC(=O)/C(C)=C\C=C\[C@H](C)[C@H](O)[C@@H](C)[C@@H](O)[C@@H](C)[C@H](OC(C)=O)[C@@H]1C` [Rifampicin, reference compound] was tested. Which MIC [5] did it give?
A: 6.25 µg/mL

Q: What about the MIC [6] of the same compound?
A: 6.25 µg/mL

Q: And the MIC [7]?
A: > 12.5 µg/mL

Q: What about the MIC [8] of the same compound?
A: 3.12 µg/mL

Q: And the MIC [9]?
A: > 12.5 µg/mL

Q: And the MIC [10]?
A: > 12.5 µg/mL

Q: What about the MIC [11] of the same compound?
A: > 12.5 µg/mL

Q: And the MIC [12]?
A: 6.25 µg/mL

Q: And the MIC [13]?
A: > 12.5 µg/mL

Q: And the MIC [14]?
A: 3.12 µg/mL

Q: And the MIC [15]?
A: 12.5 µg/mL

Q: What about the MIC [16] of the same compound?
A: > 12.5 µg/mL

Q: And the MIC [17]?
A: > 12.5 µg/mL

Q: And the MIC [18]?
A: > 12.5 µg/mL

Q: And the MIC [19]?
A: > 12.5 µg/mL

Q: And the MIC [20]?
A: > 12.5 µg/mL

Q: What about the MIC [21] of the same compound?
A: 3.12 µg/mL

Q: What does the source list for `CO[C@@H]1[C@@H](OC(N)=O)[C@@H](O)[C@H](Oc2ccc3c(O)c(NC(=O)c4ccc(O)c(CC=C(C)C)c4)c(=O)oc3c2C)OC1(C)C` [novobiocin, reference compound]?
A: MIC [2]: > 18.9 µM; MIC of novobiocin when FICI is calculated ([2]; value used for FICI calculation): 37.8 µM
